The COVID Moonshot data (paper PMC7615835)
pIC50: −log10 of the molar value. Several values for one entry are separate records, joined by “and”; a condition that tells them apart may be missing. Identical values can stand only once.

Target: SARS-CoV-2 Main Protease (SARS-CoV-2) (UniProt P0DTD1)

Compound	pIC50
O=C1O[C@]2(CCOc3ccc(Cl)cc32)C(=O)N1c1cncc2ccccc12 (stereo in doubt)	4.09 and < 5.00
O=C(CCl)N1CCN(Cc2cnc(Cc3ccccc3)s2)CC1	4.53
N#Cc1cc(F)c(Nc2cc(Cl)cc(CC(=O)Nc3cncc4ccccc34)c2)cc1F	5.67
O=[N+]([O-])c1cnc(Sc2nnc(-c3ccc(Cl)cc3)o2)s1	6.06
CCc1nc(-c2nnc[nH]2)sc1C(=O)N(c1ccc(C(C)(C)C)cc1)C(C(=O)NCCc1cccc(F)c1)c1cccnc1 (configuration not stated)	< 4.00
N#Cc1ccc2c(NC(=O)Cc3cccc(Cl)c3)cncc2c1	5.05
O=c1oc(Nc2ccccc2)nc2ccccc12	5.80
CCCOc1cc(Cl)cc2c1OCCC2C(=O)Nc1cncc2ccccc12 (configuration not stated)	5.25
CSC1=C(C#N)C2(CCCCC2)C(C#N)=C(NC(=O)CCl)N1	6.13 and 5.76
COc1ccc(C2CC(c3ccccc3)=NN2C(=O)CCl)cc1OC (configuration not stated)	6.27
CCCCOc1ccc(Cl)cc1CC(=O)Nc1cnccc1C	4.61
CCNC(=O)c1ccc(N(C(=O)c2cocn2)C(C(=O)NCCc2cccc(F)c2)c2cccnc2)cc1 (configuration not stated)	< 4.00
O=C(NCCc1cccc(F)c1)C(c1cccnc1)N(C(=O)c1cnc[nH]1)c1ccc2c(c1)CCCS2(=O)=O (configuration not stated)	< 4.00
Cc1cc2c(N3CCc4[nH]c5ccccc5c4C3)nccn2n1	< 4.00
O=C(Cc1cc(Cl)cc(NCc2c(Cl)cccc2Cl)c1)Nc1cncc2ccccc12	5.57
CN(c1cc(Cl)cc(CC(=O)Nc2cncc3ccccc23)c1)[C@@H]1CCN(Cc2ccccc2)C1 (stereo in doubt)	5.69
Cc1ccc(NC2=C(c3ccccc3)C(=O)N(Cc3cccnc3)C2=O)c(C)c1	< 4.00
CN(c1cc(Cl)cc(CC(=O)Nc2cncc3ccccc23)c1)C1CCN(C(=O)OC(C)(C)C)CC1	5.60
CCCOc1c(Cl)cc(C(=O)N2CCC(C3CCNC3)CC2)cc1OCC (configuration not stated)	< 4.00
Cc1ccncc1NC(=O)Cc1cccc(Br)c1	4.69
Cc1ccncc1NC(=O)C(C)c1cccc(C#N)c1 (configuration not stated)	4.26
CC(=O)N1CCN(CC(=O)Nc2cnccc2-c2ccccc2)CC1	< 4.00
CN(CC(=O)Nc1ccccc1Br)C(=O)CCl	5.23
Cc1ccc2c(c1)c(CCN)cn2-c1cc(Cl)cc(CC(=O)Nc2cncc3ccccc23)c1	5.79

Compound	pIC50
C=CC(=O)N[C@H](Cc1ccccc1)C(=O)NCCN(C)C (stereo in doubt)	< 4.00
O=C(Cc1cc(Cl)cc(Nc2cc(C(F)(F)F)ccc2Cl)c1)Nc1cncc2ccccc12	5.79
O=C(NCCc1cccc(F)c1)C(c1cccnc1)N(C(=O)c1cocn1)c1cn(Cc2ccccc2)cn1 (configuration not stated)	4.56
CC(C)(C)c1ccc(N(C(=O)c2c[nH]c(=O)s2)C(C(=O)NCCc2cccc(F)c2)c2cccnc2)cc1 (configuration not stated)	4.54
CC(=O)c1ccccc1C(=O)N(c1ccc(C(C)(C)C)cc1)C(C(=O)NCCc1cccc(F)c1)c1cccnc1 (configuration not stated)	< 4.00
CC(C)(C)c1ccc(N(C(=O)c2cocn2)C(C(=O)NCCc2cccc(F)c2)c2c(N3CCOCC3)nc3ccccn3c2=O)cc1 (configuration not stated)	< 4.00
Cc1cnn(C)c1C(=O)N1Cc2ccc(Cl)cc2C2(CCN(c3cncc4ccccc34)C2=O)C1 (configuration not stated)	6.17
O=C(c1cc(=O)[nH]c2ccccc12)N1CCN(c2cccc(Cl)c2)C(=O)C1	4.80
CC(C)(C)c1ccc(N(C(=O)c2ccco2)C(C(=O)NCCc2cccc(F)c2)c2cc(=O)[nH]c3ccccc23)cc1 (configuration not stated)	5.64
O=C(NCCc1cccc(F)c1)C(c1cccnc1)N(C(=O)c1cocn1)c1ccc2nc(C(F)(F)F)[nH]c2c1 (configuration not stated)	4.11
COc1ncc(NC(=O)Cc2cccc(Cl)c2)c2ccccc12	< 4.00
O=C(Cc1cccc(Cl)c1)NC1C(=O)Nc2ccccc21 (configuration not stated)	< 4.00
COC(=O)CN1Cc2ccc(Cl)cc2C(C(=O)Nc2cncc3ccccc23)C1 (configuration not stated)	5.81
O=C(Cc1cc(Cl)cc(NCc2ccccc2Br)c1)Nc1cncc2ccccc12	5.46
CSc1ncc(C#N)c(Nc2cc(Cl)cc(CC(=O)Nc3cncc4ccccc34)c2)n1	5.74
Cc1noc(C)c1S(=O)(=O)N1CCN(C(=O)CCl)CC1	5.39
N#Cc1ncc(Br)cn1	< 4.00
O=C1CC(NC(=O)C2CCOc3ccc(Cl)cc32)CN1 (configuration not stated)	< 4.00
CC(C)S(=O)(=O)Nc1ccc2c(NC(=O)C3CN(S(=O)(=O)CC4(C#N)CC4)Cc4ccc(Cl)cc43)cncc2c1 (configuration not stated)	7.05
COC(=O)[C@@H]1C[C@H](NC(=O)C(c2cccnc2)N(C(=O)c2cocn2)c2ccc(C(C)(C)C)cc2)CN1C(=O)OC(C)(C)C (stereo in doubt)	5.58
COc1ccccc1OCCNC(=O)c1cc(=O)cc[nH]1	< 4.00
Cc1ccc(Nc2cc(Cl)cc(CC(=O)Nc3cncc4ccccc34)c2)c(Br)c1	5.72
CCOC(=O)c1ncoc1CNC(=O)C(c1cccnc1)N(C(=O)c1cocn1)c1ccc(C(C)(C)C)cc1 (configuration not stated)	5.23
